{
  "source": "patent US20170035793A1",
  "about": "“Use of P2X Purinergic Receptor Agonists to Enhance Insulin Secretion In Pancreatic Beta Cells” (priority 2010, published 2017)",
  "key": {"human islets [1]": {"tested_on": "human islets", "assay": "Glucagon secretion from perifused human islets", "type": "cell-based", "source_text": "(§1) Islet Isolation. Islets were isolated as previously described (57). Monkey islets were isolated from cynomolgus monkeys (Macacca fascicularis) >4 years of age at the time of pancreas procurement, as previously described (58). Pig pancreata were procured from the local slaughterhouse. Mice (C57BL/6) and rat (Lewis rat; Harlan) islets were isolated using a rodent-islet isolation technique (59). All animal protocols were approved by the University of Miami Care and Use Committee. Human pancreatic islets were obtained from the Human Islet Cell Processing Facility at the Diabetes Research Institute, University of Miami Miller School of Medicine or from the Islet Cell Resource basic science islet distribution program, Islet Cell Resource Centers (ICRs) Consortium, Division of Clinical Research, National Center for Research Resources, National Institutes of Health. Human islets were dissociated into single cells using enzyme-free cell dissociation buffer (Invitrogen). […]\n(§2) Insulin and Glucagon Secretion. Insulin and glucagon secretion were measured as previously described (8, 36). […] Hormone release in the perifusate was determined with the human or mouse Endocrine LINCOplex Kit following manufacturer's instructions (Lincoresearch). […]"}, "rat islets": {"tested_on": "rat islets", "assay": "Insulin secretion from perifused rat islets", "type": "cell-based, rat (Lewis rat)", "details": "1-1,000 μM", "source_text": "as §1, §2"}, "human islets [2]": {"tested_on": "human islets", "assay": "ATP-induced (or α,β meATP-induced) insulin secretion in human islets with antagonists or blockers", "type": "cell-based", "details": "nominal 0 Ca2+ (+1 mM EGTA), ATP 10 μM, α,β meATP 100 μM", "source_text": "(§3) Islet Isolation. Islets were isolated as previously described (57). Monkey islets were isolated from cynomolgus monkeys (Macacca fascicularis) >4 years of age at the time of pancreas procurement, as previously described (58). Pig pancreata were procured from the local slaughterhouse. Mice (C57BL/6) and rat (Lewis rat; Harlan) islets were isolated using a rodent-islet isolation technique (59). All animal protocols were approved by the University of Miami Care and Use Committee. Human pancreatic islets were obtained from the Human Islet Cell Processing Facility at the Diabetes Research Institute, University of Miami Miller School of Medicine or from the Islet Cell Resource basic science islet distribution program, Islet Cell Resource Centers (ICRs) Consortium, Division of Clinical Research, National Center for Research Resources, National Institutes of Health. Human islets were dissociated into single cells using enzyme-free cell dissociation buffer (Invitrogen). Islets and islets cells from Q:1 all species were cultured identically (37° C. and 5% CO2) inCMRL Q:2 medium-1066 (Invitrogen), niacinamide (10 mM; Sigma), ITS (BD Biosciences), Zn2SO4 (15 μM, Sigma), GlutaMAX (2 mM; Invitrogen), Hepes (25 mM; Sigma), FBS (10%; Invitrogen), and penicillinstreptomycin (100 IU/mL-100 μg/mL; Invitrogen).\n(§4) Insulin and Glucagon Secretion. Insulin and glucagon secretion were measured as previously described (8, 36). A high-capacity automated perifusion system was developed to dynamically measure hormone secretion from pancreatic islets. A low pulsatility peristaltic pump pushed Hepes-buffered solution (125 mM NaCl, 5.9 mM KCl, 2.56 mM CaCl2, 1 mM MgCl2, 25 mM Hepes, and 0.1% BSA, pH 7.4 at a perifusion rate of 100 μL/min) through a column containing 100 pancreatic islets immobilized in Bio-Gel P-4 Gel (BioRad). Except when otherwise stated, glucose concentration was adjusted to 3 mM for all experiments. Stimuli were applied with the perifusion buffer. The perifusate was collected in an automatic fraction collector designed for a 96-well plate format. The columns containing the islets and the perifusion solutions were kept at 37° C., and the perifusate in the collecting plate was kept at <4° C. Perifusates were collected every 1 min. Hormone release in the perifusate was determined with the human or mouse Endocrine LINCOplex Kit following manufacturer's instructions (Lincoresearch). Human islet preparations varied considerably in their quality. Thus, the magnitudes of the responses to different stimuli were compared with the same recording or using recordings from the same preparation."}, "P2X7 receptors": {"target": "T1, P2X7 receptors (Homo sapiens, UniProt Q99572)", "T1 sequence (Q99572 1-595)": "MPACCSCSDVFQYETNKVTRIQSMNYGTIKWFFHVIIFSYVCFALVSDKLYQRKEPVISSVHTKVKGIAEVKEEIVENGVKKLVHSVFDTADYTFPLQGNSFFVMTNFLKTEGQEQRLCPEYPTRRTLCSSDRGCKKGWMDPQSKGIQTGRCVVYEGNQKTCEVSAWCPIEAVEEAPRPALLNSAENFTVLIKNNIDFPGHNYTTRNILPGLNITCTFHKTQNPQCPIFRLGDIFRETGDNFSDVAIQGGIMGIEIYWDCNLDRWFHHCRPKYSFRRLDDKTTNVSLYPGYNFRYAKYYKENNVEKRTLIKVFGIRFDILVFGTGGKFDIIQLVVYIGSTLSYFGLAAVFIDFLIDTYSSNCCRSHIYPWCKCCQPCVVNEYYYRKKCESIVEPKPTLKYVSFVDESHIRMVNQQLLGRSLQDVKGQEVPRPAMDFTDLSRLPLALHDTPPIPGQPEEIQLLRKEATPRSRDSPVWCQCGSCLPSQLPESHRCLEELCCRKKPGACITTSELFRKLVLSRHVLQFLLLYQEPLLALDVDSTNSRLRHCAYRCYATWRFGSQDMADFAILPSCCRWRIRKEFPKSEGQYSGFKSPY", "details": "cited from earlier work"}, "mouse islets [3]": {"tested_on": "mouse islets", "assay": "Insulin secretion from perifused mouse islets", "type": "cell-based, Mice (C57BL/6)", "details": "1-1,000 μM", "source_text": "as §1, §2"}, "monkey islets [4]": {"tested_on": "monkey islets", "assay": "Insulin secretion from perifused monkey islets", "type": "cell-based, cynomolgus monkeys (Macacca fascicularis)", "details": "increasing ATP concentrations", "source_text": "as §1, §2"}, "human islets [5]": {"tested_on": "human islets", "assay": "Dynamic insulin secretion from perifused human islets kept at constant glucose", "type": "cell-based", "source_text": "as §3, §4"}, "pig islets [6]": {"tested_on": "pig islets", "assay": "Glucagon secretion from perifused pig islets", "type": "cell-based", "source_text": "as §1, §2"}, "mouse islets [7]": {"tested_on": "mouse islets", "assay": "Glucagon secretion from perifused mouse islets", "type": "cell-based, Mice (C57BL/6)", "source_text": "as §1, §2"}, "human β cells": {"tested_on": "human β cells", "assay": "[Ca2+]i imaging (Fura-2) of glucose-responsive human islet cells", "type": "cell-based", "details": "ATPγS 50 μM", "source_text": "as §3\n[Ca^2+]i; Imaging. [Ca^2+]i imaging was performed as previously described (8, 36). Dispersed islet cells were immersed in Hepes-buffered solution (125 mMNaCl, 5.9 mMKCl, 2.56 mMCaCl2, 1 mMMgCl2, 25 mMHepes, and 0.1% BSA, pH7.4). Glucose was added to give a final concentration of 3 mM. Islets or dispersed islet cells were incubated in Fura-2 AM (2 μM; 1 h) and placed in a closed small volume imaging chamber (Warner Instruments). Stimuli were applied with the bathing solution. Islets loaded with Fura-2 were excited alternatively at 340 and 380 nm with a monochromator light source (Cairn Research Optoscan Monochromator; Cairn Research Ltd). Images were acquired with a Hamamatsu camera (Hamamatsu) attached to a Zeiss Axiovert 200 microscope (Carl Zeiss). Changes in the 340/380 fluorescence emission ratio over time were analyzed in individual islets and dispersed cells using Kinetic Imaging AQM Advance software (Kinetic Imaging). Peak changes in the fluorescence ratio constituted the response amplitude. Beta cells were distinguished from other endocrine cells by their [Ca^2+]i, responses to high glucose concentrations, and alpha cells were identified by their [Ca^2+]i responses to kainate (glutamate receptor agonist) (8, 36)."}, "monkey islets [8]": {"tested_on": "monkey islets", "assay": "Glucagon secretion from perifused monkey islets", "type": "cell-based, cynomolgus monkeys (Macacca fascicularis)", "source_text": "as §1, §2"}, "pig islets [9]": {"tested_on": "pig islets", "assay": "Insulin secretion from perifused pig islets", "type": "cell-based", "details": "1-1,000 μM", "source_text": "as §1, §2"}},
  "note": "“Also recorded” adds a separate entry of the source.",
  "data": [
    {"smiles": "Nc1ncnc2c1ncn2[C@@H]1O[C@H](COP(=O)(O)OP(=O)(O)OP(=O)(O)O)[C@@H](O)[C@H]1O", "note": "[ATP]", "values": [
      {"measurement": "glucagon response of human islets", "setting": "human islets [1]", "value": "stimulated small increases in glucagon secretion"},
      {"measurement": "insulin response of rat islets", "setting": "rat islets", "value": "No responses to ATP were observed; also recorded: neither ATP nor any of the other purinergic agonists tested stimulated insulin release; also recorded: only high concentrations of ATP (1 mM) induced small increases in insulin release"},
      {"measurement": "insulin responses to the agonist in the nominal absence of extracellular Ca2+", "setting": "human islets [2]", "value": "reduced; also recorded: strongly diminished"},
      {"measurement": "ATP concentrations required for activation of homomeric P2X7 receptors", "setting": "P2X7 receptors", "value": "> 100"},
      {"measurement": "EC50", "setting": "P2X7 receptors; read-out: EC50 for activation of P2X7 receptors", "value": 100, "unit": "µM"},
      {"measurement": "insulin response of mouse islets", "setting": "mouse islets [3]", "value": "No responses to ATP were observed; also recorded: neither ATP nor any of the other purinergic agonists tested stimulated insulin release"},
      {"measurement": "insulin response of monkey islets", "setting": "monkey islets [4]", "value": "responded to increasing concentrations of ATP like human islets"},
      {"measurement": "EC50", "setting": "human islets [5]; 3 mM and 11 mM glucose, read-out: high affinity component of the concentration response relationship for insulin release", "value": "~0.5", "unit": "µM"},
      {"measurement": "insulin secretory response to the agonist at low glucose", "setting": "human islets [5]; 3 mM glucose, ATP 100 μM (or concentration series), ATPγS 50 μM, BzATP 50 μM, α,β-methylene ATP 50 μM, ADP 100 μM, UTP 100 μM, adenosine 100 μM", "value": "elicited insulin secretory responses; also recorded: stimulated increases in insulin release concentration dependently; also recorded: promoted strong responses; also recorded: elicited large insulin and [Ca^2+]i, responses"},
      {"measurement": "response to high glucose (11 mM) compared with the increase elicited by ATP (1 mM)", "setting": "human islets [5]; ATP 1 mM response as reference", "value": "101%±30"},
      {"measurement": "insulin release on increasing extracellular ATP >1 mM", "setting": "human islets [5]; ATP >1 mM", "value": "did not further raise insulin release"},
      {"measurement": "insulin responses to the agonist in islets kept at high glucose", "setting": "human islets [5]; constant 11 mM glucose, ATP 100 μM, ATPγS 50 μM, BzATP 50 μM, UTP 100 μM, ADP 100 μM", "value": "stimulated increases in insulin release concentration dependently; also recorded: promoted strong responses"},
      {"measurement": "glucagon response of pig islets", "setting": "pig islets [6]", "value": "difficult to discern"},
      {"measurement": "glucagon response of mouse islets", "setting": "mouse islets [7]", "value": "difficult to discern; also recorded: stimulated small increases in glucagon secretion"},
      {"measurement": "[Ca2+]i response of β cells to the agonist", "setting": "human β cells; human β cells identified by response to high glucose (11 or 16 mM), recorded at 3 mM glucose, BzATP 50 μM", "value": "elicited repeatable [Ca^2+]i responses; also recorded: elicited large insulin and [Ca^2+]i, responses"},
      {"measurement": "[Ca2+]i responses to the agonist in the nominal absence of extracellular Ca2+", "setting": "human β cells; human β cells, nominal 0 Ca2+ (+1 mM EGTA)", "value": "reduced [Ca^2+]i responses to ATP"},
      {"measurement": "glucagon response of monkey islets", "setting": "monkey islets [8]", "value": "stimulated small increases in glucagon secretion"},
      {"measurement": "insulin response of pig islets", "setting": "pig islets [9]", "value": "No responses to ATP were observed; also recorded: neither ATP nor any of the other purinergic agonists tested stimulated insulin release"}
    ]}
  ]
}
